# According to patent US20190209650A1, “METHOD TO IMPROVE THE EFFECTIVENESS OF ANTI-CANCER THERAPIES BY EXPOSING CANCER CELLS TO AN INFLAMMATORY STIMULUS PRIOR TO TREATMENT” (priority 2016, published 2019):
# What was measured:
# [1] = test system: SW620 colorectal cancer cell line; assay: Flow cytometry of EpCAM positive cells and cancer stem cell (CD44+CD133-) subpopulation after incubation with cytokines; assay type: cell-based, human; settings: for % Gated, R4 (CD44FITC, CD133 PE) / % Total, R4 (CD44FITC, CD133 PE): population R4 & R14 & R2 & R1; for % Gated, R5 (CD44FITC, CD133 PE) / % Total, R5 (CD44FITC, CD133 PE): population R5 & R14 & R2 & R1; for % Gated, R6 (CD44FITC, CD133 PE) / % Total, R6 (CD44FITC, CD133 PE): population R6 & R14 & R2 & R1; for % Gated, R7 Cancer Stem Cell (CSC) (CD44+CD133-) / % Total, R7 Cancer Stem Cell (CSC) (CD44+CD133-): population R7 & R14 & R2 & R1; for % Gated, R8 (CD44FITC, EpCAMefluor710) / % Total, R8 (CD44FITC, EpCAMefluor710): population R8 & R14 & R2 & R1; for % Gated, R9 EpCAM positive Cells (CD44FITC, EpCAMefluor710) / % Total, R9 EpCAM positive Cells (CD44FITC, EpCAMefluor710): population R9 & R14 & R2 & R1; for % Gated, R10 EpCAM positive Cells (CD44FITC, EpCAMefluor710) / % Total, R10 EpCAM positive Cells (CD44FITC, EpCAMefluor710): population R10 & R14 & R2 & R1; for % Gated, R11 (CD44FITC, EpCAMefluor710) / % Total, R11 (CD44FITC, EpCAMefluor710): population R11 & R14 & R2 & R1; for putative stem cell population (CD44+/CD133-): SW620; for percentage of cancer stem cells: human cancer cell line, single agent at 1000 pg/ml
# Procedure: This number returned to near baseline 21% at 48 hours. […] This change was transient, occurring within 24 hours and rapidly returning to baseline.
# The data from the scatter plots of FIGS. 1A-1H, 2A-2H, and 3A-3H are reproduced below in Tables 1-3.
# Based on the above data of potentiating the effectiveness of chemotherapy by exposing cancer cells to specific cytokines such as HGF and or Il-6 within a time limited fashion, the mechanism behind this ability to sensitize cancer cells may not simply be triggering cellular proliferation. Specific cytokine exposures can transiently cause a cancer cell population to differentiate away from a more stem cell enriched, mesenchymal phenotype towards a more differentiated, epithelial cell population more sensitive to the effects of anti-cancer therapies (see Tables 1-3).
# In particular, exposure to a control population of SW620 colorectal cancer cell line to HGF at a concentration of 10 ng per ml for 24 hours caused the control putative stem cell population (CD44+/CD133−) to drop from 33% at baseline (see Table 1, R7 region, CD 44 positive/CD133 negative) to 1% (see Table 2, R7, region CD 44 positive/CD133 negative). This drop was transient, as exposure to the same cell line for 48 hours of HGF at 10 ng per ml transitioned the phenotypic distribution back towards a stem cell enriched phenotype with 23% putative stem cells (see Table 3, R7 region, CD 44 positive/CD133 negative).
# [2] = test system: SW 620 cell lines; assay: Cancer stem cells remaining after cytokine exposure and 24 hours exposure to CPT-11 (Irinotecan); assay type: cell-based, human; settings: FIG. 4
# Procedure: FIG. 4 depicts a table showing percentage of Cancer Stem Cells remaining after exposure to various cytokines and 24 hours exposure to CPT-11 (Irinotecan). The present inventor then performed experiments to determine if exposure to HGF would improve the effectiveness of chemotherapy treatment, based on a prediction that this stimulus, by fostering differentiation of the stem cell subpopulation, would render these cells more susceptible to chemotherapy. […] Furthermore, exposure to HGF alone for 24 hours at a concentration of 10 ng per ml followed by treatment with CPT-11 in SW 620 cell lines was able to kill cancer stem cells effectively as well, given that there were no remaining cancer stem cells after this sensitization (FIG. 4 0% CD44+/CD133−).
# [3] = test system: PANC1; assay: Cancer cell viability after 48 hours HGF only pretreatment followed by 72 hour combination treatment; assay type: cell-based, human; settings: 48 hours HGF exposure followed by 72 hour combination treatment; FIG. 7
# Procedure: FIG. 7 depicts tables showing cancer cell viability after 48 hours of HGF only pretreatment, followed by 72 hour combination treatment. HI1=HGF 0.5 ng/ml; H12=HGF 1 ng/ml; HI3=HGF 5 ng/ml. A) PANC1 48 hour HGF exposure followed by 72 hour combination treatment (COMBO=30 paclitaxel, 250 μg/mL oseltamivir phosphate, and 2.5 mM aspirin). B) PANC1 48 hour HGF exposure followed by 72 hour combination treatment (COMBO=50 μM paclitaxel, 250 μg/mL oseltamivir phosphate, and 2.5 mM aspirin).
# (§1) In the following experiments various concentrations of hepatocyte growth factor (HGF) and Interleukin 6 (IL-6), used singly and together, were used to sensitize cancer cell lines to cytotoxic chemotherapy. In these experiments a combination anti-cancer treatment of paclitaxel with aspirin and oseltamivir phosphate (OP) were used. Cell lines treated with the combination treatment (COMBO) alone were compared with those treated with the combination treatment after exposure to cytokines.
# In FIG. 7, exposing human pancreatic cancer cell lines (PANC-1) cells to HGF for 48 hours at various concentrations sensitized cancer cells to subsequent combination treatment. […] P-value in FIG. 7 was calculated based on comparison between Combination Treatment vs. Pretreatment Followed by Combination Treatment.
# [4] = test system: cancer cells; assay: Cancer cell viability after 72 hours HGF only pretreatment followed by 72 hour combination treatment; assay type: cell-based; settings: 72 hours HGF exposure followed by 72 hour combination treatment; FIG. 8
# Procedure: FIG. 8 depicts a table showing cancer cell viability after 72 hours of HGF only pretreatment, followed by 72 hour combination treatment (COMBO=30 μM paclitaxel, 250 μs/mL oseltamivir phosphate, and 2.5 mM aspirin). HI1=HGF 0.5 ng/ml; HI2=HGF 1 ng/ml; HI3=HGF 5 ng/ml.
# as §1
# Thus, exposure to this particular cytokine, for longer than 48 hours can increase the likelihood that the cancer cell population is transitioning over to a more stem cell enriched phenotype, rendering the cells less sensitive to the effects of cytotoxic therapies. Other cytokines such as HGF, IL-6, PGE-2, MCP-1, MMP-9, TGF-beta, PDGF-BB, and PGF, the up-regulation of which is associated with stem cell enrichment should also be administered in this time limited manner to avoid a stem cell enriched phenotype that is more resistant to the chemotherapy treatment. […]
# [5] = after exposure to HGF, then chemotherapy (CPT-11)
substance,measurement,setting,value
"HGF: Hepatocyte Growth Factor, cytokine","% Gated, R4 (CD44FITC, CD133 PE)",[1]; 0 hour incubation,48.6%
same,"% Total, R4 (CD44FITC, CD133 PE)",[1]; 0 hour incubation,46.6%
same,"% Gated, R5 (CD44FITC, CD133 PE)",[1]; 0 hour incubation,3.61%
same,"% Total, R5 (CD44FITC, CD133 PE)",[1]; 0 hour incubation,3.45%
same,"% Gated, R6 (CD44FITC, CD133 PE)",[1]; 0 hour incubation,14.2%
same,"% Total, R6 (CD44FITC, CD133 PE)",[1]; 0 hour incubation,13.6%
same,"% Gated, R7 Cancer Stem Cell (CSC) (CD44+CD133-)",[1]; 0 hour incubation,33.8%
same,"% Total, R7 Cancer Stem Cell (CSC) (CD44+CD133-)",[1]; 0 hour incubation,32.3%
same,"% Gated, R8 (CD44FITC, EpCAMefluor710)",[1]; 0 hour incubation,5.28%
same,"% Total, R8 (CD44FITC, EpCAMefluor710)",[1]; 0 hour incubation,5.06%
same,"% Gated, R9 EpCAM positive Cells (CD44FITC, EpCAMefluor710)",[1]; 0 hour incubation,53.1%
same,"% Total, R9 EpCAM positive Cells (CD44FITC, EpCAMefluor710)",[1]; 0 hour incubation,50.9%
same,"% Gated, R10 EpCAM positive Cells (CD44FITC, EpCAMefluor710)",[1]; 0 hour incubation,39%
same,"% Total, R10 EpCAM positive Cells (CD44FITC, EpCAMefluor710)",[1]; 0 hour incubation,37.4%
same,"% Gated, R11 (CD44FITC, EpCAMefluor710)",[1]; 0 hour incubation,2.16%
same,"% Total, R11 (CD44FITC, EpCAMefluor710)",[1]; 0 hour incubation,2.07%
same,"% Gated, R4 (CD44FITC, CD133 PE)",[1]; 24 h incubation,98.6%
same,"% Total, R4 (CD44FITC, CD133 PE)",[1]; 24 h incubation,84.7%
same,"% Gated, R5 (CD44FITC, CD133 PE)",[1]; 24 h incubation,0%
same,"% Total, R5 (CD44FITC, CD133 PE)",[1]; 24 h incubation,0%
same,"% Gated, R6 (CD44FITC, CD133 PE)",[1]; 24 h incubation,0.07%
same,"% Total, R6 (CD44FITC, CD133 PE)",[1]; 24 h incubation,0.06%
same,"% Gated, R7 Cancer Stem Cell (CSC) (CD44+CD133-)",[1]; 24 h incubation,1.01%
same,"% Total, R7 Cancer Stem Cell (CSC) (CD44+CD133-)",[1]; 24 h incubation,0.87%
same,"% Gated, R8 (CD44FITC, EpCAMefluor710)",[1]; 24 h incubation,99.8%
same,"% Total, R8 (CD44FITC, EpCAMefluor710)",[1]; 24 h incubation,85.7%
same,"% Gated, R9 EpCAM positive Cells (CD44FITC, EpCAMefluor710)",[1]; 24 h incubation,0.02%
same,"% Total, R9 EpCAM positive Cells (CD44FITC, EpCAMefluor710)",[1]; 24 h incubation,0.02%
same,"% Gated, R10 EpCAM positive Cells (CD44FITC, EpCAMefluor710)",[1]; 24 h incubation,0.02%
same,"% Total, R10 EpCAM positive Cells (CD44FITC, EpCAMefluor710)",[1]; 24 h incubation,0.02%
same,"% Gated, R11 (CD44FITC, EpCAMefluor710)",[1]; 24 h incubation,0.2%
same,"% Total, R11 (CD44FITC, EpCAMefluor710)",[1]; 24 h incubation,0.17%
same,"% Gated, R4 (CD44FITC, CD133 PE)",[1]; 48 h incubation,38%
same,"% Total, R4 (CD44FITC, CD133 PE)",[1]; 48 h incubation,34.2%
same,"% Gated, R5 (CD44FITC, CD133 PE)",[1]; 48 h incubation,7.48%
same,"% Total, R5 (CD44FITC, CD133 PE)",[1]; 48 h incubation,6.73%
same,"% Gated, R6 (CD44FITC, CD133 PE)",[1]; 48 h incubation,31.3%
same,"% Total, R6 (CD44FITC, CD133 PE)",[1]; 48 h incubation,28.2%
same,"% Gated, R7 Cancer Stem Cell (CSC) (CD44+CD133-)",[1]; 48 h incubation,23.9%
same,"% Total, R7 Cancer Stem Cell (CSC) (CD44+CD133-)",[1]; 48 h incubation,21.5%
same,"% Gated, R8 (CD44FITC, EpCAMefluor710)",[1]; 48 h incubation,20%
same,"% Total, R8 (CD44FITC, EpCAMefluor710)",[1]; 48 h incubation,18%
same,"% Gated, R9 EpCAM positive Cells (CD44FITC, EpCAMefluor710)",[1]; 48 h incubation,34.7%
same,"% Total, R9 EpCAM positive Cells (CD44FITC, EpCAMefluor710)",[1]; 48 h incubation,31.2%
same,"% Gated, R10 EpCAM positive Cells (CD44FITC, EpCAMefluor710)",[1]; 48 h incubation,31.8%
same,"% Total, R10 EpCAM positive Cells (CD44FITC, EpCAMefluor710)",[1]; 48 h incubation,28.7%
same,"% Gated, R11 (CD44FITC, EpCAMefluor710)",[1]; 48 h incubation,14.4%
same,"% Total, R11 (CD44FITC, EpCAMefluor710)",[1]; 48 h incubation,12.9%
same,putative stem cell population (CD44+/CD133-),"[1]; 10 ng per ml for 24 hours (Table 2, R7 region)",1%
same,putative stem cell population (CD44+/CD133-),"[1]; 10 ng per ml for 48 hours (Table 3, R7 region)",23%
same,putative stem cell population (CD44+/CD133-),"[1]; at baseline (Table 1, R7 region)",33%
same,percentage of cancer stem cells,[1]; at 24 hours,less than one percent
same,percentage of cancer stem cells,[1]; at 48 hours,21%
same,percentage of cancer stem cells,[1]; prior to exposure,approximately 30%
same,remaining cancer stem cells CD44+/CD133-,"[2]; HGF alone 24 hours at 10 ng per ml followed by CPT-11, SW 620",0%
same,cancer stem cells killed,[2]; [5],100%
same,viable cancer stem cells remaining,[2]; [5],no viable cancer stem cells remaining
same,reduction in cell viability,[3],87%
same,sensitization of cancer cells to the combination treatment,[4],made the combination treatment less effective
